Ten compounds from US12679836B2, “4H-pyrrolo[3,2-c]pyridin-4-one compounds” (Bayer Aktiengesellschaft, priority 2019, dated 2026) can be followed below.

“And” between values parts separate entries of the source, which are not always exact repeats. Equal entries are not always repeated.

One experiment addresses Ba/F3-EGFR-L858R cells (Homo sapiens, UniProt P00533, L858R, cells depend on it). Put plainly: Ba/F3 cell survival assay, EGFR L858R. The experiment is classed as cell-based. Particulars: without IL-3, without EGF, 48 h; read-out: BA/F3 (EGFR L858R) IC50. How it is done:
(§1) 293T cells from ATCC were transfected with pBABEpuro expression constructs for mutant EGFR (V769_D770insASV, D770_N771insNPG, N771_P772insH, H773_V774insNPH, E746_A750del, L858R, D770_N771insSVD C797S, E746_A750del C797S, L858R C797S, L861Q) or mutant ERBB2 (A775_G776insYVMA) and pCL-Eco packaging vector using Fugene-6 transfection reagent from Promega. Plates were incubated at 37° C. for 48 h. Retrovirus was harvested by filtering the media supernatant through a 0.45 μm filter.
(§2) Ba/F3 cells purchased from DSMZ were grown in RPMI+10% FBS+10 ng/mL IL-3 and infected with filtered retroviral supernatant at a 1:2 dilution. Polybrene was added to a concentration of 8 μg/mL, plates were spun for 90 min, and incubated overnight at 37° C. 2 μg/mL puromycin was added to the infected cells 24 h after infection and cells were continually grown in the presence of puromycin and 10 ng/mL IL-3. Following stably expressing Ba/F3 cell lines were generated: Ba/F3-EGFR-V769_D770insASV, Ba/F3-EGFR-D770_N771insNPG, Ba/F3-EGFR-N771_P772insH, Ba/F3-EGFR-H773_V774insNPH, Ba/F3-EGFR-E746_A750del, Ba/F3-EGFR-L858R, Ba/F3-EGFR-D770_N771 insSVD C797S, Ba/F3-EGFR-E746_A750del C797S, Ba/F3-EGFR-L858R C797S, Ba/F3-EGFR L861Q and Ba/F3-ERBB2-A775_G776insYVMA (Ba/F3-vector-control).
(§3) For cell survival assays, Ba/F3 cells were grown to a density of 1-2 million cells per mL, spun down and resuspended in media without IL-3, and replated at a concentration 200,000-500,000 cells per mL. The cells ectopically expressing WT EGFR plated with 10 ng/mL Millipore Culture grade EGF and Ba/F3 cells containing mutant EGFR or Mutant ERBB2 were cultivated without EGF. The cells ectopically expressing pBABEpuro empty vector were plated with 10 ng/mL IL-3.
(§4) 2 days later, cells were plated in 50 μL in a 384 well plate at a concentration of 4000 cells per well for cells assayed in the absence of IL-3 and 2000 cells per well for cells assayed in the presence of IL-3. 100 nL of compound was added to each well using a 100 nL pin head, and plates were incubated at 37° C. for 48 h.
(§5) Cell viability was measured by adding 20 μL of Cell Titer-Glo Luminescent Cell Viability Reagent diluted 1:3 in PBS. Plates were sealed with Perkin Elmer Top-Seal, inverted several times to mix, and immediately centrifuged at 1000 rpm for 2 min. Plates were incubated in low light conditions for 8-10 min and luminescence was measured.

Another experiment relates to PC9 cells (EGFRex19del). Put plainly: PC9 proliferation assay (Cell Titer Glo). The experiment is classed as cell-based. Particulars: Homo sapiens, PC-9, 72 h. How it is done: Cellular Data Description (PC9 Cells, EGFRex19del)
(§6) PC9 cells were purchased from ATCC. 400 PC9 cells per well were seeded in growth medium (DMEM, 10% FCS) in a 384-well plate (CORNING #3571). Seed reference plate for time zero determination on the same day. All plates were incubated overnight at 37° C. After 24 hours, test compound were added in 7-step dilution using HP Compound printer and incubated at 37° C. for 72 h. After 3 days, 30 μL/well CTG solution (Promega Cell Titer Glo solution; catalog # G755B and G756B) were added to each well, incubated for 30 minutes and the plate were read on PheraStar. Proliferation is calculated after subtracting time zero luminescence values from day 4 values and comparing to untreated wells. The IC50 values were determined using the four parameter fit.

The target in experiment [1] is Ba/F3-EGFR-D770_N771 insSVD C797S cells (Homo sapiens, UniProt P00533, DUP768-770/C797S, cells depend on it). Put plainly: Ba/F3 cell survival assay, EGFR D770_N771insSVD C797S. Particulars: without IL-3, without EGF, 48 h; read-out: BA/F3 (EGFR 0770_N771 insSVD C797S) IC50. The class given is cell-based. How it is done:
as §1, §2, §3, §4, §5

For the next experiment, the target named is Ba/F3-EGFR L861Q cells (Homo sapiens, UniProt P00533, L861Q, cells depend on it). Put plainly: Ba/F3 cell survival assay, EGFR L861Q. The class given is cell-based. Particulars: without IL-3, without EGF, 48 h; read-out: BA/F3 (EGFR L861Q) IC50. How it is done:
as §1, §2, §3, §4, §5

Experiment [2] concerns the target Ba/F3-EGFR-E746_A750del cells (Homo sapiens, UniProt P00533, DEL746-750, cells depend on it). Put plainly: Ba/F3 cell survival assay, EGFR E746_A750del. The class given is cell-based. Particulars: without IL-3, without EGF, 48 h; read-out: BA/F3 (EGFR E746_A750del) IC50. How it is done: as §1, §2, §3, §4, §5
In experiment [3] the test system is HCC-827 cells (EGFRex19del). Put plainly: HCC-827 proliferation assay (Cell Titer Glo). The class given is cell-based. The settings on record: Homo sapiens, HCC827, 72 h. How it is done: Cellular Data Description (HCC-827 Cells, EGFRex19del)
as §6, with “HCC-827 cells” for “PC9 cells”, “[…]” for “400 PC9”, “medium (RPM11640,” for “medium (DMEM,”, “wells.” for “wells. The IC50 values were determined using the four parameter fit.”
The IC50 values were determined using the four parameter fit.

The target in experiment [4] is T1, EGFR with insertion of SVD between D770 and N771 (EGFR ins SVD) (Homo sapiens, UniProt P00533, DUP768-770).
T1 construct: made in house; host or cells: Sf9 insect cells (baculovirus)
T1 sequence (P00533 with tags, fused parts or gaps DUP768-770): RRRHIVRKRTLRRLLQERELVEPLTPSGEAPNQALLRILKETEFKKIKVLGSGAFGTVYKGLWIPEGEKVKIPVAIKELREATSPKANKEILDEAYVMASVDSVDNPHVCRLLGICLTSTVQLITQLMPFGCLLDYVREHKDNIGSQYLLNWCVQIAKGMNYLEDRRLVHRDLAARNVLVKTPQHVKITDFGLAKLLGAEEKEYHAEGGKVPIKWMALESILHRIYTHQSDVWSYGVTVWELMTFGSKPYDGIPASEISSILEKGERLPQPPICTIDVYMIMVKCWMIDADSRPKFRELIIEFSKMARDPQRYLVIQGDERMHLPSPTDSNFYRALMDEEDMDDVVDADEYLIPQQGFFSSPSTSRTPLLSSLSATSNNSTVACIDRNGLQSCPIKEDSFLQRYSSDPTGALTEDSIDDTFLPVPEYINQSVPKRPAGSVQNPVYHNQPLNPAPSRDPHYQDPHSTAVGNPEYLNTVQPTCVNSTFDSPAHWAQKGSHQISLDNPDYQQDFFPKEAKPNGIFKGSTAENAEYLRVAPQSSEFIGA
Put plainly: Exon20-Mutant-EGFR(D770_N771insSVD) kinase assay (TR-FRET). The experiment is classed as biochemical. Particulars: 2 mM ATP, several values per example where printed. For orientation: TR-FRET usually uses a lanthanide donor and a delayed reading to cut background.

Sequence of Ba/F3-EGFR-E746_A750del cells (P00533 with tags, fused parts or gaps DEL746-750): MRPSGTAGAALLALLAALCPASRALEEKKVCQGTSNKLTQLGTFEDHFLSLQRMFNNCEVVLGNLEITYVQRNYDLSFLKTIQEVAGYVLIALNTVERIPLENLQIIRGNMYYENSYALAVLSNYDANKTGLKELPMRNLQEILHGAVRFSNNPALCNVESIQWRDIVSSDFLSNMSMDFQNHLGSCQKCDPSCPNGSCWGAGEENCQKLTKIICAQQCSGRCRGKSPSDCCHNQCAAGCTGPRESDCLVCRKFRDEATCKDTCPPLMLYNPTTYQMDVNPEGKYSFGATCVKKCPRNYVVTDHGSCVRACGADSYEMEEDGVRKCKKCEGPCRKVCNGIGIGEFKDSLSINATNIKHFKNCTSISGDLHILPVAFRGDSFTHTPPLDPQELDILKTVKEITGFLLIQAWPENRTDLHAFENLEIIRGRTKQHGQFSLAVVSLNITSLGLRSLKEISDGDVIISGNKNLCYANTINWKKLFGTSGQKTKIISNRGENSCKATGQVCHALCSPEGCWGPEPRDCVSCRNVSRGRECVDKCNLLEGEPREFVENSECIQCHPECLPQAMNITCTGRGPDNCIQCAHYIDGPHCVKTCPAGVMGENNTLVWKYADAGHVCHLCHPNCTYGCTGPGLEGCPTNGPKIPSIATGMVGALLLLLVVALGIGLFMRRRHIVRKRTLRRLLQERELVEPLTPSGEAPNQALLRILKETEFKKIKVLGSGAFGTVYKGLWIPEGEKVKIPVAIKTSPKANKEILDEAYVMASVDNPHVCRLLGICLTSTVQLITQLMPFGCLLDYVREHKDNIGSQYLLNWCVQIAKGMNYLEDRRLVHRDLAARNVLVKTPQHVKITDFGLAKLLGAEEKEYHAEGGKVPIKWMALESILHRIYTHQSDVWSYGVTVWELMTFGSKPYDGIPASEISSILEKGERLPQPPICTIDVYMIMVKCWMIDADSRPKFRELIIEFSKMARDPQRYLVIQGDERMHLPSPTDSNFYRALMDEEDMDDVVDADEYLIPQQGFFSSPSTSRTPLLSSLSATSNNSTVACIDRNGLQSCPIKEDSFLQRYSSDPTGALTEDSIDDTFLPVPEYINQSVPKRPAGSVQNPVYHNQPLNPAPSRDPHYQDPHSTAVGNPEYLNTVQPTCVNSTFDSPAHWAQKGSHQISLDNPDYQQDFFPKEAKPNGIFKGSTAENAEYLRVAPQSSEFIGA
Sequence of Ba/F3-EGFR L861Q cells (P00533 whole entry L861Q): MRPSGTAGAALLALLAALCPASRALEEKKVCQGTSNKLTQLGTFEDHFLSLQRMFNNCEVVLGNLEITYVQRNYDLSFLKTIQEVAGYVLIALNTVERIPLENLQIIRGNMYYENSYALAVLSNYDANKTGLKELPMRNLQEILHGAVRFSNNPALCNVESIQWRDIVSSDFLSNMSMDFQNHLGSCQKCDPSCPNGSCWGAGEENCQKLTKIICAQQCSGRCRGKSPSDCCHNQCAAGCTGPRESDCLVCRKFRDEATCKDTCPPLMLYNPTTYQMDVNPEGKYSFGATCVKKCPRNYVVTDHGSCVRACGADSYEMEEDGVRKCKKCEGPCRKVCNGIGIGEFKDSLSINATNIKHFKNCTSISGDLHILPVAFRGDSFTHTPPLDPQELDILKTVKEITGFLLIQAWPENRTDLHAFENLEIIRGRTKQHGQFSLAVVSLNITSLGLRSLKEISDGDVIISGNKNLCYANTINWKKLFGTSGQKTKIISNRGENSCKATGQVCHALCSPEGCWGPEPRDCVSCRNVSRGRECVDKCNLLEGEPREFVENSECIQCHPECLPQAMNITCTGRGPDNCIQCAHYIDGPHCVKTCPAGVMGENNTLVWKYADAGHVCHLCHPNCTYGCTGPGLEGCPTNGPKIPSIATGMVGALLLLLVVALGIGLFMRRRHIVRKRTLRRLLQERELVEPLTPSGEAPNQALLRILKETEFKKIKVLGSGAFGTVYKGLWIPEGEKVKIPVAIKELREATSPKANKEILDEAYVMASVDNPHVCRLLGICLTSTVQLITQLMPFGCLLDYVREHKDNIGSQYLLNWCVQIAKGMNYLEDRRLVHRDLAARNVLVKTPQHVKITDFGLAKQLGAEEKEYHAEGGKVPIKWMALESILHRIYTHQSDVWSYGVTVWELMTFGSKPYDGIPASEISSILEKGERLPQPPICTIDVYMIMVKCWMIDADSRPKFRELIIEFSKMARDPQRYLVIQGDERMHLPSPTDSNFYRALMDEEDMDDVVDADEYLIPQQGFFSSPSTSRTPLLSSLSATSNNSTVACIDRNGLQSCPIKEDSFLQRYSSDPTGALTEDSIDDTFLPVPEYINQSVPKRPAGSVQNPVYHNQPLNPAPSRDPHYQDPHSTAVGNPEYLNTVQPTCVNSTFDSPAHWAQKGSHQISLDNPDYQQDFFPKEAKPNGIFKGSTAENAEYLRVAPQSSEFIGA
Sequence of Ba/F3-EGFR-L858R cells (P00533 whole entry L858R): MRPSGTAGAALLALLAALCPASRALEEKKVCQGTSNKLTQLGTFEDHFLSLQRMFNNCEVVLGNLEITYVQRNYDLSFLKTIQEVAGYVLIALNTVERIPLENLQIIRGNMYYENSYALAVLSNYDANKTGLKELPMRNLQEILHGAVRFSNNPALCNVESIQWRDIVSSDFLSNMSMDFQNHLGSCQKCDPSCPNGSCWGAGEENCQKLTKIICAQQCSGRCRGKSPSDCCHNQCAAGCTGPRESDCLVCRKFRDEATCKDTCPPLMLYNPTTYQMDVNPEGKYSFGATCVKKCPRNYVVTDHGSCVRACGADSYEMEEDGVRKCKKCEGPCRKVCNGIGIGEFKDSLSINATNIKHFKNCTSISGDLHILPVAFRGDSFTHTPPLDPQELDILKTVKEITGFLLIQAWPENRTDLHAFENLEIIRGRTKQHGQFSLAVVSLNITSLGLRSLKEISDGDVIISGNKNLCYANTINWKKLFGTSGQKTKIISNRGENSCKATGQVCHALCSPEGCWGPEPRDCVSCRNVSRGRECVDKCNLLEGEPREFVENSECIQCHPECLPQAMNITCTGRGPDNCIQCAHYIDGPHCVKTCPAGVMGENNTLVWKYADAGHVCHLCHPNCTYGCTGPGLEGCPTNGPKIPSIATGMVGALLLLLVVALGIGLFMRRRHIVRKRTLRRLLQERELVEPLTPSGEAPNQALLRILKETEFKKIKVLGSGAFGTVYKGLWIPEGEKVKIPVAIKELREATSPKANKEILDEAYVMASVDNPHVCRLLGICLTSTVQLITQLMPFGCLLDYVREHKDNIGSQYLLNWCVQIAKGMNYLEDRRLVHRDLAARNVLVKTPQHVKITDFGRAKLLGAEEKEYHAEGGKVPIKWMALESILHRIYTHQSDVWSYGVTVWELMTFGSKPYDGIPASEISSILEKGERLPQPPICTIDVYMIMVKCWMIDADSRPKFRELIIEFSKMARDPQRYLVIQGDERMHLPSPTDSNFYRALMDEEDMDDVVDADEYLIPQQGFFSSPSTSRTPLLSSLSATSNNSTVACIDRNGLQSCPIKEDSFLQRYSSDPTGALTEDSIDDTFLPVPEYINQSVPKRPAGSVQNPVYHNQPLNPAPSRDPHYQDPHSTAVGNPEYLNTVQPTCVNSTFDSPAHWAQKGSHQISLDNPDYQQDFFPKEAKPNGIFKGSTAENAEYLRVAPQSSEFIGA

A word on the IC50: it is the concentration that inhibits the measured activity by half. Turning to `COc1c(Cl)cccc1Nc1c(-c2ccncc2OCC2COC(C)(C)CO2)[nH]c2c1C(=O)NCC2` (single isomer, unassigned) [Example 32, 3-(3-chloro-2-methoxyanilino)-2-{3-[(5,5-dimethyl-1,4-dioxan-2-yl)methoxy]pyridin-4-yl}-1,5,6,7-tetrahydro-4H-pyrrolo[3,2-c]pyridin-4-one], the GI50 came out at 1.06 nM at Ba/F3-EGFR-L858R cells, 15.8 nM in experiment [1], 17.4 nM on Ba/F3-EGFR L861Q cells and 2.89 nM in experiment [2]. The IC50 is 1.7 nM in the experiment with PC9 cells (EGFRex19del) and < 3 nM in experiment [3]. The “mutEGFR (D770_N771insSVD) kinase assay IC50” value (“mutEGFR” for short) in experiment [4] stood at 127 pM.
Consider `Cc1c(Cl)cccc1Nc1c(-c2ccncc2OCC2COC(C)(C)CO2)[nH]c2c1C(=O)NCC2` (single isomer, unassigned) [Example 46, 3-(3-chloro-2-methyl-anilino)-2-[3-[(5,5-dimethyl-1,4-dioxan-2-yl)methoxy]-4-pyridyl]-1,5,6,7-tetrahydropyrrolo[3,2-c]pyridin-4-one], for which the GI50 worked out at 0.957 nM at Ba/F3-EGFR-L858R cells, 15.8 nM at Ba/F3-EGFR L861Q cells and 1.05 nM in experiment [2]. The 50% inhibitory concentration (IC50) in the experiment on PC9 cells (EGFRex19del) is 2.89 nM; in experiment [3], < 3 nM. In experiment [4], the “mutEGFR” value worked out at 433 pM.
For the compound `Cc1c(F)cccc1Nc1c(-c2ccncc2OCC2COCCO2)[nH]c2c1C(=O)NCC2` (single isomer, unassigned) [Example 48, 2-[3-(1,4-dioxan-2-ylmethoxy)-4-pyridyl]-3-(3-fluoro-2-methyl-anilino)-1,5,6,7-tetrahydropyrrolo[3,2-c]pyridin-4-one], the GI50 was determined as 2.36 nM at Ba/F3-EGFR-L858R cells, 39.7 nM on Ba/F3-EGFR L861Q cells and 1.43 nM in experiment [2]. For the same compound, the values for the half-maximal inhibitory concentration (IC50) (in the experiment with PC9 cells (EGFRex19del); in experiment [3]) were 3.4 nM and < 3 nM, respectively. Besides, the “mutEGFR” value in experiment [4] stood at 249 pM.
For the compound `CCc1c(Cl)cccc1Nc1c(-c2ccncc2OC[C@@H]2CN(C)CCO2)[nH]c2c1C(=O)NCC2` [Example 56, 3-(3-chloro-2-ethylanilino)-2-(3-{[(2S)-4-methylmorpholin-2-yl]methoxy}pyridin-4-yl)-1,5,6,7-tetrahydro-4H-pyrrolo[3,2-c]pyridin-4-one], the GI50 on Ba/F3-EGFR-L858R cells worked out at 1.34 nM; in experiment [1], 14 nM; on Ba/F3-EGFR L861Q cells, 29.5 nM; in experiment [2], 0.892 nM. Besides, the IC50 is 1.74 nM in the experiment with PC9 cells (EGFRex19del) and < 3 nM in experiment [3]. In addition, the “mutEGFR” value in experiment [4] came to 258 pM.
For the compound `COc1c(F)cccc1Nc1c(-c2ccncc2OC[C@@H]2COCCN2C)[nH]c2c1C(=O)NCC2` [Example 20, 3-(3-fluoro-2-methoxyanilino)-2-(3-{[(3S)-4-methylmorpholin-3-yl]methoxy}pyridin-4-yl)-1,5,6,7-tetrahydro-4H-pyrrolo[3,2-c]pyridin-4-one], the IC50 in the experiment with PC9 cells (EGFRex19del) was 2.68 nM; in experiment [3] it was < 3 nM. In experiment [1], the GI50 amounted to 12.2 nM. Moreover, in experiment [4], the “mutEGFR” value was determined as 87.2 pM.
For the compound `COc1c(Cl)cccc1Nc1c(-c2ccncc2OC[C@@H]2COCCN2C)[nH]c2c1C(=O)NCC2` [Example 21, 3-(3-chloro-2-methoxyanilino)-2-(3-{[(3S)-4-methylmorpholin-3-yl]methoxy}pyridin-4-yl)-1,5,6,7-tetrahydro-4H-pyrrolo[3,2-c]pyridin-4-one], the GI50 on Ba/F3-EGFR-L858R cells stood at 0.644 nM; in experiment [1], 7.84 nM; at Ba/F3-EGFR L861Q cells it was 7.34 nM; in experiment [2] it was 0.203 nM. The 50% inhibitory concentration (IC50) with PC9 cells (EGFRex19del) is 1.16 nM; in experiment [3] it was < 3 nM. Further, the “mutEGFR” value in experiment [4] is 126 pM.
Take `COc1c(F)cccc1Nc1c(-c2ccncc2OCC2CN(C)CCO2)[nH]c2c1C(=O)NCC2` (single isomer, unassigned) [Example 14, 3-(3-fluoro-2-methoxyanilino)-2-{3-[(4-methylmorpholin-2-yl)methoxy]pyridin-4-yl}-1,5,6,7-tetrahydro-4H-pyrrolo[3,2-c]pyridin-4-one]: the GI50 was 1.22 nM at Ba/F3-EGFR-L858R cells, 24.9 nM in experiment [1], 20.1 nM on Ba/F3-EGFR L861Q cells and 1.72 nM in experiment [2]. Besides, the figures for the IC50 (in the experiment on PC9 cells (EGFRex19del); in experiment [3]) were 2.12 nM and < 3 nM, respectively. Further, the “mutEGFR” value in experiment [4] came out at 130 pM.
Regarding `Cc1c(Cl)cccc1Nc1c(-c2ccncc2OC[C@@H]2CN(C)CCO2)[nH]c2c1C(=O)NCC2` [Example 42, 3-(3-chloro-2-methylanilino)-2-(3-{[(2S)-4-methylmorpholin-2-yl]methoxy}pyridin-4-yl)-1,5,6,7-tetrahydro-4H-pyrrolo[3,2-c]pyridin-4-one], the GI50 turned out to be 1.51 nM on Ba/F3-EGFR-L858R cells, 19.3 nM in experiment [1], 18.8 nM on Ba/F3-EGFR L861Q cells and 0.486 nM in experiment [2]. Moreover, the half-inhibitory concentration (IC50) in the experiment on PC9 cells (EGFRex19del) was 4.03 nM; in experiment [3], < 3 nM. In experiment [4], the “mutEGFR” value is 155 pM.
With `COc1c(Cl)cccc1Nc1c(-c2ccncc2OC[C@@H]2COCCO2)[nH]c2c1C(=O)NCC2` (single isomer, unassigned) [Example 2], the GI50 was 0.525 nM on Ba/F3-EGFR-L858R cells, 8.22 nM in experiment [1], 14.8 nM on Ba/F3-EGFR L861Q cells and < 0.158 nM in experiment [2]. Further, the IC50 was 0.673 nM in the experiment on PC9 cells (EGFRex19del) and < 3 nM in experiment [3].
Turning to `COc1c(F)cccc1Nc1c(-c2ccncc2OCC2COCCO2)[nH]c2c1C(=O)NCC2` (single isomer, unassigned) [Example 5, 2-{3-[(1,4-dioxan-2-yl)methoxy]pyridin-4-yl}-3-(3-fluoro-2-methoxyanilino)-1,5,6,7-tetrahydro-4H-pyrrolo[3,2-c]pyridin-4-one], the GI50 on Ba/F3-EGFR-L858R cells turned out to be 2.03 nM; in experiment [1], 37 nM; at Ba/F3-EGFR L861Q cells, 30.9 nM; in experiment [2] it was 0.739 nM. The “mutEGFR” value in experiment [4] was <72.5 pM and 85.1 pM and 112 pM and 114 pM and 120 pM and 124 pM and 136 pM.
